Test results as given in paper PMC3034309 (European journal of pharmacology, 2011).

Legend:
[1] = target: human cannabinoid CB1 receptors (Homo sapiens, UniProt P21554); test: Inhibition of forskolin-stimulated cyclic AMP production in CHO cells; format: cell-based; conditions: read-out: Emax, inhibition of forskolin-induced stimulation of cyclic AMP
ICR mice [2] = test: Suppression of spontaneous activity; conditions: i.v.; for ED50 SA (suppression of spontaneous activity): 95% confidence limits in parentheses
cannabinoid CB1 receptor [3] = target: T1, cannabinoid CB1 receptor (Rattus norvegicus, UniProt P20272); test: [3H]CP55,940 binding, cannabinoid CB1 receptor, rat cerebellar membranes; conditions: read-out: Ki (nM) CB1, 1 nM [3H]CP55,940, mean ± S.E.M.
ICR mice [4] = test: Rectal temperature; conditions: i.v., 95% confidence limits in parentheses
[5] = target: mouse cannabinoid CB2 receptors (Mus musculus, UniProt P47936); test: [3H]CP55,940 binding, cannabinoid CB2 receptor, CB2-CHO cell membranes; conditions: for better affinity for cannabinoid CB2 receptors than for CB1: ratio of CB1 to CB2 affinity; for Ki: read-out: Ki (nM) CB2, CB2-CHO cell membranes, 1 nM [3H]CP55,940, mean ± S.E.M.
ICR mice [6] = test: Tail flick antinociception; conditions: for ED50 TF (tail flick antinociception): mice, i.v., 95% confidence limits in parentheses
ICR mice [7] = test: Mouse in vivo screening test battery as a whole, agonist tests
[8] = test system: mouse isolated vas deferens; test: Mouse vas deferens procedure; conditions: for dextral shift of WIN 55,212-2 log concentration response curve: 95% confidence limits in parentheses; for mean change in twitch height: compound alone
ICR mice [9] = test: Locomotor trials associated with the feeding experiment; format: in vivo, mouse; conditions: 10 and 30 mg/kg doses, i.p., 30 min before 10-min test
ICR mice [10] = test: Mouse feeding experiment; format: in vivo; conditions: mice food deprived for 24 hr, injected i.p. 30 min before 1 h session
ICR mice [11] = test: Antagonist tests in the mouse in vivo test battery
cannabinoid CB1 receptor [12] = target: T1, cannabinoid CB1 receptor; test: Agonist-stimulated [35S]GTPγS binding in rat cerebellar membranes; format: biochemical
C57/Bl6J mice = test: Δ9-tetrahydrocannabinol drug discrimination in mice; format: in vivo, mouse; conditions: mice trained to discriminate 5.6 mg/kg Δ9-tetrahydrocannabinol from vehicle, s.c.

Sequence of mouse cannabinoid CB2 receptors (P47936 whole entry): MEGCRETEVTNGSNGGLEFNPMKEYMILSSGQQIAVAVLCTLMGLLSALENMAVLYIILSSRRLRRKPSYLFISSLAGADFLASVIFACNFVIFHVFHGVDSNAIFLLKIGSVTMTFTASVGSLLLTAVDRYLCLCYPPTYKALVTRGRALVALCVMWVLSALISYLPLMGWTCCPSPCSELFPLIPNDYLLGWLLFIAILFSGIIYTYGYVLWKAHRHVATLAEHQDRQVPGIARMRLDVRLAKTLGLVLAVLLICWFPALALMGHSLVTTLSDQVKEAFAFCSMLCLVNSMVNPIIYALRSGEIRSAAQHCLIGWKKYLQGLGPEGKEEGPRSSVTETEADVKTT
T1 sequence (P20272 whole entry): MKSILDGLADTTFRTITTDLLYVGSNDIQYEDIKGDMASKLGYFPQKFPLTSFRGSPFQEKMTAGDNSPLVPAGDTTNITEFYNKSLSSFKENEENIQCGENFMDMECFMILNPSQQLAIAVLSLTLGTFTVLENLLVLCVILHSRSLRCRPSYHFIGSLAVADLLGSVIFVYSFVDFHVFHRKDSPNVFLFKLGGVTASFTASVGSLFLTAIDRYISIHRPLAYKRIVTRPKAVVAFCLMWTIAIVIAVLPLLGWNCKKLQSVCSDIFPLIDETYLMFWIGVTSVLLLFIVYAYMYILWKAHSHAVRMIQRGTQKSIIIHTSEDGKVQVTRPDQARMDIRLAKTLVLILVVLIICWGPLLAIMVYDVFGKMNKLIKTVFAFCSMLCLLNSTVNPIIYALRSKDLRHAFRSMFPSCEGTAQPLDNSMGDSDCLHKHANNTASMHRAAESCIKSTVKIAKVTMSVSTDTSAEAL
Sequence of human cannabinoid CB1 receptors (P21554 whole entry): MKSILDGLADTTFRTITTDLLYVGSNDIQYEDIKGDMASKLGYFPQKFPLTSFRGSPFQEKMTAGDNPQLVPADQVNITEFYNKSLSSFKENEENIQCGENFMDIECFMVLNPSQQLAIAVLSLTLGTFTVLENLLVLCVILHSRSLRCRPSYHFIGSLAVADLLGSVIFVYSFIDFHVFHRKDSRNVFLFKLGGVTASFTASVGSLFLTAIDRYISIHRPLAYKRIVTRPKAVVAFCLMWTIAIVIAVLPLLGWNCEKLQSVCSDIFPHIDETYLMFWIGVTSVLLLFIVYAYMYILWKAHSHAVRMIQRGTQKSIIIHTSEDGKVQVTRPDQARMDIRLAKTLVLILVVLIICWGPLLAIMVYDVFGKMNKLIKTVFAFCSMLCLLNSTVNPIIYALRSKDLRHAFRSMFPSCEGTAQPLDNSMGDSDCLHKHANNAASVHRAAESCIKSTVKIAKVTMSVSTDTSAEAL

CCCCCCC(C)(C)c1ccc([C@@H]2C[C@H](O)CC[C@H]2CCCO)c(O)c1 [CP55,940, (−)-cis-3-[2-hydroxy-4(1,1-dimethyl-heptyl)phenyl]-trans-4-(3-hydroxy-propyl)cyclohexanol]
Emax [1]: 74.4%

CCS(=O)(=O)NCCCC#CCc1cc(O)c2c(c1)OC(C)(C)[C@@H]1CC=C(C)C[C@@H]21 [O-1991]
ED50 SA (suppression of spontaneous activity) (ICR mice [2]): 2 (1-3) mg/kg
Ki (cannabinoid CB1 receptor [3]): 30 ± 13 nM
ED50 RT (rectal temperature) (ICR mice [4]): 0.8 (0.4-1.6) mg/kg
better affinity for cannabinoid CB2 receptors than for CB1 [5]: 21 fold
Ki [5]: 1.4 ± 0.2 nM
ED50 TF (tail flick antinociception) (ICR mice [6]): 0.9 (0.6-1.4) mg/kg

CCCCS(=O)(=O)NCCCC#CCc1cc(O)c2c(c1)OC(C)(C)C1CC=C(C)CC21 (centres unmarked) [O-1993]
ED50 SA (suppression of spontaneous activity) (ICR mice [2]): 8 (3-16) mg/kg
Ki (cannabinoid CB1 receptor [3]): 70 ± 10 nM
ED50 RT (rectal temperature) (ICR mice [4]): 12 (9-15) mg/kg
Ki [5]: 86 ± 7 nM
decrease of in vivo potencies as compared to O-1991 (ICR mice [7]; across the three in vivo tests (SA, TF, RT)): 4- to 14 fold
ED50 TF (tail flick antinociception) (ICR mice [6]): 14 (7-27) mg/kg

CC1=CC[C@@H]2[C@@H](C1)c1c(O)cc(CC#CCCCNS(C)(=O)=O)cc1OC2(C)C [O-2050]
dextral shift of WIN 55,212-2 log concentration response curve ([8]; 1 nM O-2050): 2.8 (1.7 - 4.4)
dextral shift of WIN 55,212-2 log concentration response curve ([8]; 10 nM O-2050): 7.5 (4.1 - 13)
dextral shift of WIN 55,212-2 log concentration response curve ([8]; 31.62 nM O-2050): 15.0 (9.9 - 21.9)
dextral shift of WIN 55,212-2 log concentration response curve ([8]; 100 nM O-2050): 103.9 (60.0 - 180.7)
mean change in twitch height ([8]; 30 min after 1 nM): 6.03±6.21%
mean change in twitch height ([8]; 30 min after 10 nM): −0.45±5.9%
mean change in twitch height ([8]; 30 min after 31.62 nM): 3.39±9.4%
mean change in twitch height ([8]; 30 min after 100 nM): 3.8±8.1%
mean change in twitch height ([8]; 30 min after 1000 nM): 6.19±16.4%
Schild plot slope ([8]; interaction with WIN 55,212-2): 0.83±0.18
Kb ([8]; read-out: mean KB value, antagonism of WIN 55,212-2): 1 ± 0.1 nM
SA: percent effect at the highest dose (ICR mice [2]; 30 mg/kg (highest dose)): 69% @ 30
Ki (cannabinoid CB1 receptor [3]): 2.5 ± 0.4 nM
locomotor activity (ICR mice [9]): significant locomotor stimulation
food intake (ICR mice [10]): significant and dose-dependent decreases in food intake
delayed antagonist effects (ICR mice [11]; 30 mg/kg injected 24 hr prior to 3 mg/kg Δ9-tetrahydrocannabinol, data not shown): did not have delayed antagonist effects
antagonism of in vivo effects of WIN 55,212-2 (ICR mice [11]; doses of up to 3 and 10 mg/kg i.v., vs 1 mg/kg WIN 55,212-2, data not shown): did not antagonize
antagonism of in vivo pharmacological effects of Δ9-tetrahydrocannabinol (ICR mice [11]; doses up to 30 mg/kg i.v., vs 3 mg/kg Δ9-tetrahydrocannabinol i.v.): did not antagonize
maximum stimulation of [35S]GTPγS binding (cannabinoid CB1 receptor [12]; compound alone, rat cerebellar membranes): 11 ± 3%
stimulation by CP 55,940 that was not blocked (cannabinoid CB1 receptor [12]; in presence of 1000 nM CP55,940): 11 ± 6%
better affinity for cannabinoid CB2 receptors than for CB1 [5]: 12 fold
Ki [5]: 0.2 ± 0.1 nM
activity in the battery of three in vivo tests (ICR mice [7]; mice, i.v., up to 30 mg/kg): not active in any of the three in vivo tests
Δ9-tetrahydrocannabinol-like discriminative stimulus effects (C57/Bl6J mice): produced discriminative stimulus effects that were similar to those of Δ^9-tetrahydrocannabinol
increase in antinociception as compared to vehicle (ICR mice [6]; 10 μg i.c.v., with dimethyl sulfoxide i.v.): 2 fold

CCS(=O)(=O)NCCCCC(C)(C)c1cc(O)c2c(c1)OC(C)(C)C1CC=C(C)CC21 (centres unmarked) [O-2113]
ED50 SA (suppression of spontaneous activity) (ICR mice [2]): 0.4 (0.1-1.8) mg/kg
Ki (cannabinoid CB1 receptor [3]): 1.7 ± 0.3 nM
ED50 RT (rectal temperature) (ICR mice [4]): 1.4 (0.3-4.6) mg/kg
better affinity for cannabinoid CB2 receptors than for CB1 [5]: 21 fold
Ki [5]: 0.08 ± 0.02 nM
ED50 TF (tail flick antinociception) (ICR mice [6]): 0.3 (0.1-1) mg/kg
